Results: article PMC5589751, “Synthesis, high-throughput screening and pharmacological characterization of β–lactam derivatives as TRPM8 antagonists” (Scientific Reports, 2017)
Several values for one entry are separate records, joined by “and”; a condition that tells them apart may be missing. Equal entries are not always repeated.

How the values were obtained:
Assay type in all cases: cell-based
[1] = system: HEK-CR1 cells; test: MTT-based assay of cytotoxicity; settings: 24 hours incubation; three concentrations
Procedure: Figure 2S. Effect of derivative 41 and 45 on MTT-based assay of cytotoxicity in HEK-CR1 cells.
A) Cell survival after 24 hours incubation at three concentrations of derivative 41 or B) derivative 45.
Each value is expressed as mean ± SEM. n ≥ 4, ANOVA with Bonferroni post hoc test (*** p < 0.001).
Cell viability assay (MTT)
Cell viability was assessed by the detection of mitochondrial activity in living cells using a modified colorimetric analysis of Blue Tetrazolium Bromide Thiazolyl (MTT). Briefly, HEK293 cells (2 × 10^4 cells/well) were subcultured in 96-well plates, grown until 80–90% confluence, and incubated with increasing concentrations of testing compounds for 24 h. Following treatment, 10 μL of MTT solution (5 mg/mL in phosphate buffered saline) was added to each well and further incubated for 4 h at 37 °C. Subsequently, 100 μL of DMSO was added to each well to dissolve any deposited formazan resulting from cleavage and reduction of MTT by active mitochondrial dehydrogenases. The optical density of each well was measured at 540 nm with a microplate reader (Polastar BMG LABTECH, […]
(1 picture or pasted object on this page, not shown here)

[2] = molecular target: T1, TRPM8 (Rattus norvegicus, UniProt Q8R455); test: Whole-cell patch clamp in TRPM8-expressing HEK-CR1 cells (menthol, voltage, cold); settings: for effect on menthol-evoked TRPM8 current at 1 µM / IC50: 500 µM menthol; for effect on cold-evoked TRPM8 current: cold 16 °C; for IC50: whole cell, ratio P2/P1, read-out: IC50, TRPM8 activity evoked by menthol (patch clamp); for Hill coefficient nH: dose-response against 500 µM menthol
T1 construct: expressed in transfected cells
Procedure: As depicted in Fig. 3, perfusion with 500 µM menthol activated a large TRPM8 inward current at −60 mV (Fig. 3, control). […] The extent of TRPM8 activity shown in Fig. 3 corresponds to the ratio of channel activity between the second (P2) and the first (P1) pulses (ratio P2/P1) of menthol in order to take into account the channel desensitization (supplementary information Fig. 3S)[36], [37].
Left: Representative whole-cell voltage clamp recordings from TRPM8-expressing HEK-CR1 cells and compound 41 (A) and 45 (B). Voltage was held at −60 mV. Pre-application of compounds (20 s) was followed by co-application with 500 µM menthol (Control) for 20s. Current traces of different colours denote the different concentrations of compounds tested. Right: Dose response of compound 41 (A, red), 45 (B, blue) TRPM8 blocked activity. Solid line depicts the fitting to a Hill equation. Data are given as mean ± SEM, with n > 4 cells per data point.
Figure 4 Compound 41 abolished the voltage-evoked response on TRPM8. (A) Representative families of TRPM8 ionic currents in absence (Control) or presence of 1 μM 41 elicited with a voltage step protocol consisting of 200-ms depolarizing pulses from −60 to +120 mV in steps of 20 mV (inset). Holding potential −60 mV, time between pulses = 5s. (B) I-V relationships of TRPM8 channel activity in the absence (black) and presence of 1 µM 41 (red).
Figure 5 Compound 41 abolished the cold thermal activity response on TRPM8. Left: Representative families of TRPM8 ionic currents at +80mV in absence (A) or presence of 1µM 41 (B) activated by cold temperature (16 °C) obtained with a 300-ms ramp from −80 to +80 mV in intervals of 2 s during 3 minutes. Holding potential −60 mV. Right: I-V relationships of TRPM8 channel in basal conditions (a, black line), activated by cold in the absence (b, green line) and presence of 1 µM 41 (c, blue line). (C) Ratio currents between pulse 2 and pulse 1 induced by menthol in the absence (black bar) or in the presence (blue bar) of compound 41.
(§1) Electrophysiological recording was carried out 1–3 d after cells seeded. Membrane currents and voltages were recorded by patch clamp using the whole-cell configuration. For whole-cell recordings of HEK-hTRPV1 and HEK-TRPM8 cells, pipette solution contained (in mM) 140 CsCl, 5 EGTA, and 10 HEPES, adjusted to pH 7.2 with CsOH, and bath solution contained (in mM) 140 NaCl, 5 KCl, 2 CaCl2, 2 MgCl2, 5 EGTA, 10 D-glucose, 10 Mannitol and 10 HEPES, adjusted to pH 7.4 with NaOH. In calcium-free bath solution, CaCl2 was replaced with 5mM EGTA. For potassium and sodium recordings, CsCl was substituted by KCl and the pH was adjusted to pH 7.2 with KOH. Patch pipettes were prepared from thin-walled borosilicate glass capillaries (World Precision Instruments, Sarasota, FL, USA), pulled with a horizontal puller (P-97, Sutter Instruments, Novato, CA, USA) to have a tip resistance of 2–4 MΩ when filled with internal solutions. Data were sampled at 10 kHz (EPC10 amplifier with PatchMaster 2.53 software, HEKA Electronics, Lambrecht, Germany) and low-pass filtered at 3 kHz for analysis (PatchMaster 2.53 and GraphPad Prism 5, Graphpad Software, USA). The series resistance was <10 MΩ and to minimize voltage errors was compensated to 60–80%. All measurements were performed at 24–25°C. The temperature was adjusted with a water-cooled Peltier device placed at the inlet of the chamber and controlled by a feedback device (Automatic Temperature Controller TC-324B, Warner Instruments). Cold-sensitivity was investigated with a temperature decrease to 16–18 °C.

[3] = molecular target: Kv1.1 (Homo sapiens, UniProt Q09470); test: Whole-cell patch clamp in cells expressing Kv1.1
Procedure: as §1, with “The temperature was adjusted with a water-cooled Peltier device placed at the inlet of the chamber and controlled by a feedback device (Automatic Temperature Controller TC-324B, Warner Instruments). Cold-sensitivity was investigated with a temperature decrease to 16–18 °C.” left out

[4] = molecular target: TRPA1 (Homo sapiens, UniProt O75762); test: Whole-cell patch clamp in cells expressing TRPA1
Procedure: Electrophysiological recording was carried out 1-3 d after cells seeded. Membrane currents and voltages were recorded by patch clamp using the whole-cell configuration. […] In calcium-free bath solution, CaCl2 was replaced with 5mM EGTA. For potassium and sodium recordings, CsCl was substituted by KCl and the pH was adjusted to pH 7.2 with KOH. Patch pipettes were prepared from thin-walled borosilicate glass capillaries (World Precision Instruments, Sarasota, FL, USA), pulled with a horizontal puller (P-97, Sutter Instruments, Novato, CA, USA) to have a tip resistance of 2-4 MΩ when filled with internal solutions. Data were sampled at 10 kHz (EPC10 amplifier with PatchMaster 2.53 software, HEKA Electronics, Lambrecht, Germany) and low-pass filtered at 3 kHz for analysis (PatchMaster 2.53 and GraphPad Prism 5, Graphpad Software, USA). The series resistance was <10 MΩ and to minimize voltage errors was compensated to 60-80%. All measurements were performed at 24-25°C. The temperature was adjusted with a water-cooled Peltier device placed at the inlet of the chamber and controlled by a feedback device (Automatic Temperature Controller TC-324B, Warner Instruments). Cold-sensitivity was investigated with a temperature decrease to 16-18 °C. page 44: Figure 1S. […] A) […] compound 41 (blue line). Pre-application of compound (20 s) was followed by coapplication with 500 […] 41. […] C) […] Pre-application of […] Voltage was held at -60 mV for all the experiments. […] (1 picture or pasted object on this page, not shown here)

Chain of TRPA1 (O75762 whole entry, species assumed): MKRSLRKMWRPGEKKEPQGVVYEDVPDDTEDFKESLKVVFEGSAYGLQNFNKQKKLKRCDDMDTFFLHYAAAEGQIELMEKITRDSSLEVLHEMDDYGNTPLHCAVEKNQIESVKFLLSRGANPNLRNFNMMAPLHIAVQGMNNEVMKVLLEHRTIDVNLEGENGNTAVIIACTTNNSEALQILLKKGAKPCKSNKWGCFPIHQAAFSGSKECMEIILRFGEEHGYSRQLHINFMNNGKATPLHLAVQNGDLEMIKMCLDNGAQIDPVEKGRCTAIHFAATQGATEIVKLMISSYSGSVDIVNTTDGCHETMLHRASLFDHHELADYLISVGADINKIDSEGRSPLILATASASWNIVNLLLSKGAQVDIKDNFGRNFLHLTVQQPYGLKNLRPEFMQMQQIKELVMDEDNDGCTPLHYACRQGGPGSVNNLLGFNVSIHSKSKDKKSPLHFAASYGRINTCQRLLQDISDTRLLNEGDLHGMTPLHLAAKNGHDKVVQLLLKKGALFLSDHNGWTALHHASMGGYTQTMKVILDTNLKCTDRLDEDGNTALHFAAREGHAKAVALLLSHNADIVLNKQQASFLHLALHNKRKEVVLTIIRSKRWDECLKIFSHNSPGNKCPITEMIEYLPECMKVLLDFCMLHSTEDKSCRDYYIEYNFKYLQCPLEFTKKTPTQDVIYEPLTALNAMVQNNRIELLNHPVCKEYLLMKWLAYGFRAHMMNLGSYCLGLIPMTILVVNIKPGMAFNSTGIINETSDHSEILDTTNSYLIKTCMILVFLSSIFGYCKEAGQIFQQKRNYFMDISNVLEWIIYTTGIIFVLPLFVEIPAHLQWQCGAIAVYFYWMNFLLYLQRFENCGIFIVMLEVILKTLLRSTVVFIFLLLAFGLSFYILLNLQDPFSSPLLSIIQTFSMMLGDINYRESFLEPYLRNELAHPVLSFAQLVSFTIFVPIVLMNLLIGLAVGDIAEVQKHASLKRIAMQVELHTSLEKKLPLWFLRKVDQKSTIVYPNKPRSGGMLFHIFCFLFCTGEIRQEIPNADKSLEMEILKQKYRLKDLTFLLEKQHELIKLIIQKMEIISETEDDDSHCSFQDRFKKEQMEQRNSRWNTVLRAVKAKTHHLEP
T1 sequence (Q8R455 whole entry): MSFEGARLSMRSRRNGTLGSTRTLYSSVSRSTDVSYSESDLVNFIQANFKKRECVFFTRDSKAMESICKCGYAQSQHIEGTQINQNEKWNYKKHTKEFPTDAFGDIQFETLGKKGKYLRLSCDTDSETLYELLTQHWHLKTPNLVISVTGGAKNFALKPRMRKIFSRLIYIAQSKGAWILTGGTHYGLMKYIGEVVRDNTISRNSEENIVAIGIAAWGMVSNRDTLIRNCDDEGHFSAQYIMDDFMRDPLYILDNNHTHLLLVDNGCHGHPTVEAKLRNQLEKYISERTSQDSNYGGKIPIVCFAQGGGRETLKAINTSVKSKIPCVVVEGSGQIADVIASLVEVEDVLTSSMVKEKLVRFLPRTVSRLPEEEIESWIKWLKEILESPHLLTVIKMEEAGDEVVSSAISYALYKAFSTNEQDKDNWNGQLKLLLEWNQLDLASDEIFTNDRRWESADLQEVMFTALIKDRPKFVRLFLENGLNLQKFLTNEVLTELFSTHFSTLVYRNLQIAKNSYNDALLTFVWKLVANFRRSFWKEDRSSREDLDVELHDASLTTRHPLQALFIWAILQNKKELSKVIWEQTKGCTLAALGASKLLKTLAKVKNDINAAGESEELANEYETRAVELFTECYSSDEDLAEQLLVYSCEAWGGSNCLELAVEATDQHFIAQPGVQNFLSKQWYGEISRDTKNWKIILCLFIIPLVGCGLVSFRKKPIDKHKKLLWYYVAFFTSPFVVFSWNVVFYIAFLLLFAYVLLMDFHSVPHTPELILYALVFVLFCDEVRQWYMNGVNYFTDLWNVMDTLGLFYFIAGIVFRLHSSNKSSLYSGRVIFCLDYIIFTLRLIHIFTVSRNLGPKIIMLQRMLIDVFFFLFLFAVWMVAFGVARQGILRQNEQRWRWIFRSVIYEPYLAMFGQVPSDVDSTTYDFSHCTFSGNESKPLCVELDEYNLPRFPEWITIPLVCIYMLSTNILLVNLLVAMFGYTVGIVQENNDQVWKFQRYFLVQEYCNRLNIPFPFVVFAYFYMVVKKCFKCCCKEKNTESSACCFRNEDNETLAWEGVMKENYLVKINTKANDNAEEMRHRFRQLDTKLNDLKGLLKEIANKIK
Chain of Kv1.1 (Q09470 whole entry): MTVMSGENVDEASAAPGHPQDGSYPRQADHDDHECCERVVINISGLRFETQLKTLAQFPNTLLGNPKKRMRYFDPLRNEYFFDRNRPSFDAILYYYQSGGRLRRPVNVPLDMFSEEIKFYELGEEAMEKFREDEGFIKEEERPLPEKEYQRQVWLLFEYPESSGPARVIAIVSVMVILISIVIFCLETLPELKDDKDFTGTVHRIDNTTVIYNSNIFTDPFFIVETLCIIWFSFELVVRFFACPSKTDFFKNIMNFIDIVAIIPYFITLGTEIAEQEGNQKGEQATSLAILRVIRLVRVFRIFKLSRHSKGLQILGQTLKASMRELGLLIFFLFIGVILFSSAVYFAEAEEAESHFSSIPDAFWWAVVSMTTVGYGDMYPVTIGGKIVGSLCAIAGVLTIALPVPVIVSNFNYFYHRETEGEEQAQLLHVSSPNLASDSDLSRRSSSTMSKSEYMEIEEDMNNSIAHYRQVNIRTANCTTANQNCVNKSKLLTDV

Structure (SMILES)	cytotoxicity in the MTT assay [1]	effect on menthol-evoked TRPM8 current at 1 µM ([2]; 1 µM compound)	effect on cold-evoked TRPM8 current ([2]; 1 µM compound)	reduction of voltage-mediated TRPM8 activity ([2]; 1 µM compound, depolarizing voltage +120 mV)	agonist activity (activation) on TRPM8 ([2]; 1 µM compound, −60 mV)	reversibility of TRPM8 block ([2]; 1 µM, menthol pulse four minutes after removal of compound)	IC50 ([2]; −60 mV)	Hill coefficient nH ([2]; −60 mV)	IC50 [3]	IC50 [4]	agonist activity (activation) on TRPA1 ([4]; 1 µM compound, −60 mV)	effect on voltage-evoked TRPM8 outward currents ([2]; 1 µM compound)
CC(C)(C)OC(=O)N[C@@H](CCN1C(=O)CC1(Cc1ccccc1)C(=O)OCc1ccccc1)C(=O)OCc1ccccc1 (stereo partly shown) [Compound 41, 4R,S-Benzyl-4-benzyloxycarbonyl-1-[(3′S-benzyloxycarbonyl-3-tert-butoxycarbonylamino-3′-benzyloxycarbonyl)prop-1′-yl]-2-oxoazetidine]	did not display apparent cytotoxicity	almost totally absence of current	significant decrease in the current intensity	90 ± 2%	did not produce activation	reversible	46 nM	−1.5 ± 0.3	> 1000 nM	> 1000 nM	did not produce activation	–
CC1C(=O)N(CC[C@H](NC(=O)OC(C)(C)C)C(=O)OCc2ccccc2)C1(Cc1ccccc1)C(=O)OCc1ccccc1 (stereo partly drawn) [Compound 45, 4R,S-Benzyl-4-benzyloxycarbonyl-1-[(3′S-benzyloxycarbonyl-3′-tert-butoxycarbonylamino)prop-1′-yl]-(3R,S)-methyl-2-oxoazetidine]	did not display apparent cytotoxicity	almost totally absence of current	reduce significantly	–	–	–	82.9 nM and 83 nM	−1.1 ± 0.2	> 1000 nM	> 1000 nM	–	reduce significantly
